From the supplement of paper PMC10307832

Columns and labels:
Assay in all cases: relative viability (nuclei count vs DMSO), 5 days (fraction); higher = more cells survive
NCI-H1563 = conditions: first compound 0.5 µM
Outline: (§1)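 After 5 days of treatment, lung cancer cells in 1536-well plates were fixed and stained in a single step (final 0.05% Triton X-100, 1% formaldehyde, 1 ug/ml Hoechst) and their nuclei counted on 4× images. Treatment had been applied by pin tool the day after seeding as one drug alone or as a fixed anchor-drug dose with five library-drug doses (not always all listed) in √10 steps. Relative viability is the nuclei count of treated wells divided by that of vehicle wells, and values are medians of duplicate plates.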

NCI-H1651 = test system: NCI-H1651
Outline: as §1

NCI-H1793 = test system: NCI-H1793
Outline: as §1

NCI-H1944 = test system: NCI-H1944
Outline: as §1

NCI-H2023 = test system: NCI-H2023
Outline: as §1

NCI-H2085 = test system: NCI-H2085
Outline: as §1

NCI-H2087 = test system: NCI-H2087
Outline: as §1

NCI-H2405 = test system: NCI-H2405
Outline: as §1

NCI-H520 = test system: NCI-H520
Outline: as §1

NCI-H650 = test system: NCI-H650
Outline: as §1

NCI-H838 = test system: NCI-H838
Outline: as §1

SK-MES-1 = test system: SK-MES-1
Outline: as §1

Compound: COc1cc2nccc(Oc3ccc(NC(=O)Nc4cc(C)on4)c(Cl)c3)c2cc1OC [Tivozanib] + CS(=O)(=O)N1CCN(Cc2cc3nc(-c4cccc5[nH]ncc45)nc(N4CCOCC4)c3s2)CC1 [Pictilisib] (partner 1 µM)
- relative viability (NCI-H1563): 0.581
- relative viability (NCI-H1651; first compound 0.005 µM): 0.464
- relative viability (NCI-H1651; first compound 0.01581 µM): 0.581
- relative viability (NCI-H1651; first compound 0.05 µM): 0.613
- relative viability (NCI-H1651; first compound 0.1581 µM): 0.484
- relative viability (NCI-H1651; first compound 0.5 µM): 0.783
- relative viability (NCI-H1793; first compound 0.005 µM): 0.222
- relative viability (NCI-H1793; first compound 0.01581 µM): 0.257
- relative viability (NCI-H1793; first compound 0.05 µM): 0.364
- relative viability (NCI-H1793; first compound 0.5 µM): 0.292
- relative viability (NCI-H1944; first compound 0.005 µM): 0.327
- relative viability (NCI-H1944; first compound 0.01581 µM): 0.365
- relative viability (NCI-H1944; first compound 0.05 µM): 0.356
- relative viability (NCI-H1944; first compound 0.1581 µM): 0.289
- relative viability (NCI-H1944; first compound 0.5 µM): 0.307
- relative viability (NCI-H2023; first compound 0.005 µM): 0.238
- relative viability (NCI-H2023; first compound 0.01581 µM): 0.228
- relative viability (NCI-H2023; first compound 0.05 µM): 0.249
- relative viability (NCI-H2023; first compound 0.1581 µM): 0.178
- relative viability (NCI-H2023; first compound 0.5 µM): 0.195
- relative viability (NCI-H2085; first compound 0.005 µM): 0.474
- relative viability (NCI-H2085; first compound 0.01581 µM): 0.456
- relative viability (NCI-H2085; first compound 0.05 µM): 0.536
- relative viability (NCI-H2085; first compound 0.1581 µM): 0.405
- relative viability (NCI-H2085; first compound 0.5 µM): 0.408
- relative viability (NCI-H2087; first compound 0.005 µM): 0.765
- relative viability (NCI-H2087; first compound 0.01581 µM): 1.08
- relative viability (NCI-H2087; first compound 0.05 µM): 0.851
- relative viability (NCI-H2087; first compound 0.1581 µM): 0.738
- relative viability (NCI-H2087; first compound 0.5 µM): 1.02
- relative viability (NCI-H2405; first compound 0.005 µM): 0.34
- relative viability (NCI-H2405; first compound 0.01581 µM): 0.398
- relative viability (NCI-H2405; first compound 0.05 µM): 0.428
- relative viability (NCI-H2405; first compound 0.1581 µM): 0.312
- relative viability (NCI-H2405; first compound 0.5 µM): 0.342
- relative viability (NCI-H520; first compound 0.005 µM): 0.263
- relative viability (NCI-H520; first compound 0.01581 µM): 0.256
- relative viability (NCI-H520; first compound 0.05 µM): 0.295
- relative viability (NCI-H520; first compound 0.1581 µM): 0.242
- relative viability (NCI-H520; first compound 0.5 µM): 0.302
- relative viability (NCI-H650; first compound 0.005 µM): 0.674
- relative viability (NCI-H650; first compound 0.01581 µM): 0.866
- relative viability (NCI-H650; first compound 0.05 µM): 0.771
- relative viability (NCI-H650; first compound 0.1581 µM): 0.78
- relative viability (NCI-H650; first compound 0.5 µM): 0.77
- relative viability (NCI-H838; first compound 0.005 µM): 0.443
- relative viability (NCI-H838; first compound 0.01581 µM): 0.498
- relative viability (NCI-H838; first compound 0.05 µM): 0.453
- relative viability (NCI-H838; first compound 0.5 µM): 0.501
- relative viability (SK-MES-1; first compound 0.005 µM): 0.325
- relative viability (SK-MES-1; first compound 0.01581 µM): 0.34
- relative viability (SK-MES-1; first compound 0.05 µM): 0.416
- relative viability (SK-MES-1; first compound 0.1581 µM): 0.289
- relative viability (SK-MES-1; first compound 0.5 µM): 0.363
